Test [1] relates to ecDNA hubs in COLO320-DM. In words: ecDNA clustering by interphase DNA FISH, autocorrelation g(r). Type of test: cell-based, human. To be noted: 6 hours. The source says: The Oligopaint FISH probe libraries were constructed as described previously 51 Each oligo consists of a 40 nucleotide (nt) homology to the hg19 genome assemble designed from the algorithm developed from the laboratory of Dr. Ting Wu (https://oligopaints.hms.harvard.edu/). Each library subpool consists of a unique sets of primer pairs for orthogonal PCR amplification and a 20 nt T7 promoter sequence for in vitro transcription and a 20 nt region for reverse transcription. Individual Oligopaint probes were generated by PCR amplification, in vitro transcription, and reverse transcription, in which ssDNA oligos conjugated with ATTO488 and ATTO647 fluorophores were introduced during the reverse transcription step. The Oligopaint covered genomic regions (hg19) used in this study are as follows: chr8: 116967673-118566852 (hg19_COLO_nonecDNA_1.5Mbp), chr8: 127435083-129017969 (hg19_COLO_ecDNA_1.5Mbp), chr8: 128729248-128831223 (hg19_PC3_ecDNA1_100 kb). A ssDNA oligo pool was ordered and synthesized from Twist Bioscience (San Francisco, CA). 15 mm #1.5 round glass coverslips (Electron Microscopy Sciences) were pre-rinsed with anhydrous ethanol for 5 min, air dried, and coated with L-poly lysine solution (100 μg/mL) for at least 2 hours. Fully dissociated ColoDM320 or PC3 cells were seeded onto the coverslips and recovered for at least 6 hours before experiments. Cells were fixed with 4% (v/v) methanol free paraformaldehyde diluted in 1×PBS at room temperature for 10 min. Then cells were washed 2× with 1×PBS and permeabilized in 0.5% Triton-X100 in 1×PBS for 30 min. After 2× wash in 1×PBS, cells were treated with 0.1M HCl for 5 min, followed by 3× washes with 2×SSC and 30 min incubation in 2×SSC+0.1% Tween20 (2×SSCT)+50% (v/v) formamide (EMD Millipore, cat #S4117). […]
To analyze the clustering of ecDNAs, we applied the autocorrelation function as described previously58 in Matlab (2019). g(r) estimates the probability of detecting another ecDNA signal at increasing distances from the viewpoint of an index ecDNA signal and is equal to 1 for a uniform, random distribution. Specifically, the pair auto-correlation function g(r^→) was calculated by the fast Fourier transform (FFT) method described by the equations below.
N(r^→) is the auto-correlation of a mask matrix that has the value of 1 inside the nucleus used for normalization. […] Autocorrelation functions were calculated first by converting the Cartesian coordinates to polar coordinates by Matlab cart2pol( ) function, binning by radius and by averaging within the assigned bins. […]

The test system of test [2] is MYC mRNA in COLO320-DM cells. Nature of the test: MYC RNA measured by RT-qPCR in COLO320-DM. The test is classed as cell-based, human. To be noted: 500 nM, 6 hours. The method, then: Cells were then treated for 6 hours with 500 nM JQ1 in DMSO unless otherwise indicated (Sigma-Aldrich SML1524) or an equivalent volume of DMSO.
RNA was extracted using RNeasy Plus mini Kit (QIAGEN 74136). Purified RNA was quantified by Nanodrop (Thermo Fisher). For RT-qPCR, 50 ng of RNA, 1× Brilliant II qRT-PCR mastermix with 1 μL RT/RNase block (Agilent 600825), and 200 nM forward and reverse primer were used. Each Ct value was measured using Lightcycler 480 (Roche) and each mean dCt was averaged from duplicate qRT-PCR reaction and performed in biological triplicate. Relative MYC RNA level (RT-qPCR primers MYC_exon3_fw and MYC_exon3_rv) was calculated by ddCt method compared to 18S and GAPDH controls (RT-qPCR primers GAPDH_fw, GAPDH_rv, 18S_fw, 18S_rv). P values were calculated using a Student's t-test by comparing the relative fold change of biological triplicates.
Approximately 0.6×10^6 COLO320-DM or COLO-320-HSR cells were plated in 6 well plates and cultured under standard conditions for 24 hours. Cells were then treated for 6 hours with one of the following: 500 nM JQ1 (Sigma-Aldrich SML1524), 500 nM MS645 (Sigma Aldrich SML2549), 1 μM THZ-1 (Selleck chemicals S7549), 20 μM SGC-SCP30 (Selleck chemicals S7256), 10 μM OICR-9429 (Selleck chemicals S7833), 50 μM MI-3 (Selleck chemicals S7619), 2 μM trichostatin A (Selleck chemicals S1045), or DMSO. […]

Turning to `OCCCCCCO` [1,6-hexanediol], the “ecDNA hub clustering (interphase DNA FISH, autocorrelation g(r))” value (shortened to “ecDNA hub clustering”) in test [1] (1% 1,6-hexanediol) is on record as “did not affect ecDNA hubs”.
Take `Cc1sc2c(c1C)C(c1ccc(Cl)cc1)=N[C@@H](CC(=O)NCCCCCCCCCCNC(=O)C[C@@H]1N=C(c3ccc(Cl)cc3)c3c(sc(C)c3C)-n3c(C)nnc31)c1nnc(C)n1-2` [MS645]: the “MYC mRNA level” value in test [2] was “reduced ecDNA transcription and clustering similar to JQ1”. In addition, in test [1] (500 nM), the “ecDNA hub clustering” value is “reduced ecDNA transcription and clustering similar to JQ1”.
Turning to alpha-amanitin, the “ecDNA hub clustering” value in test [1] (100 μg/mL alpha-amanitin) is given as “did not affect ecDNA hubs”.

For the origin of these results see patent US20250304952A1, “DNA ELEMENT RESPONSIVE TO EXTRACHROMOSOMAL DNA IN CANCER CELLS” (The Board of Trustees of the Leland Stanford Junior …, priority 2021, published 2025).
